Reference: patent US20140186329A1, “POLYPHENOL ANALOGS TO TREAT ISCHEMIA” (priority 2011, published 2014)

Columns and labels:
HT22 cells = assay: Maintenance of total GSH in the presence of glutamate; assay type: cell-based, mouse; conditions: derivative 1-10 μM, 5 mM glutamate, 24 hr
Outline: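 HT22 cells treated 24 hr with each derivative at 1-10 μM plus 5 mM glutamate, then extracts analysed for total GSH by chemical assay. Fisetin (10 μM) served as positive control.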

PC12 cells = assay: PC12 cell differentiation (neurite outgrowth); assay type: cell-based; conditions: N2 medium, derivative 1-10 μM, 24 hr, visual inspection
Outline: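 PC12 cells in N2 medium were exposed to derivatives (1-10 μM) for 24 hr, with Fisetin (10 μM) as positive control. Cells counted as positive if bearing ≥1 neurite longer than one cell body diameter; 100 cells scored in each of three fields per treatment.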

Nrf2 = Nrf2 induction, SDS-PAGE and Western blotting of nuclear extracts; assay type: cell-based; conditions: cells treated 1, 2 and 4 hr
Procedure: For immunoblotting of Nrf2, nuclear extracts were prepared as described (Schreiber, et al., Nucleic Acids Res. (1989) 17 (15), 6419) from untreated cells and cells treated with the Fisetin derivatives for 1, 2 and 4 hr. Fisetin was used as a positive control. […] Protein concentrations were determined using the BCA protein assay (Pierce). Equal amounts of protein were solubilized in 2.5×SDS-sample buffer, separated on 10% SDS-polyacrylamide gels and transferred to nitrocellulose. Equal loading and transfer of the samples was confirmed by staining the nitrocellulose with Ponceau-S. Transfers were blocked for 1 hr at room temperature with 5% nonfat milk in TBS/0.1% Tween 20 and then incubated overnight at 4° C. in the primary antibody diluted in 5% BSA in TBS/0.05% Tween 20. The primary antibodies used were: anti-Nrf2 (#SC13032; 1/1000) from Santa Cruz Biotechnology (Santa Cruz, Calif.) and anti-β-actin (#5125; 1/20,000) from Cell Signaling (Beverly, Mass.). The transfers were rinsed with TBS/0.05% Tween 20 and incubated for 1 hr at room temperature in horseradish peroxidase-goat anti-rabbit or goat anti-mouse (Biorad, Hercules, Calif.) diluted 1/5000 in 5% nonfat milk in TBS/0.1% Tween 20. The immunoblots were developed with the Super Signal reagent (Pierce, Rockford, Ill.).
The transcription factor Nrf2 plays a key role in regulating GSH metabolism in many different cell types (Lewerenz, et al., Antioxidant & Redox Signaling. (2011) 14, 1449-1465). We have shown that Fisetin can induce Nrf2 and this correlates with its ability to enhance GSH levels (Maher, P. et al., Genes. Nutr. (2009) September 10). To determine if the derivatives which can maintain GSH levels do so by increasing Nrf2 we looked at Nrf2 levels in the nuclei of derivative-treated cells using Fisetin as a positive control (Table 4). […] This was particularly true for the derivatives based on the quinoline scaffold where none of them increased Nrf2 despite being very effective at maintaining GSH levels.

SMILES | GSH (ability to maintain GSH) (HT22 cells) | PC12 diff'n (ability to induce PC12 cell differentiation) (PC12 cells) | Nrf2 (ability to induce the transcription factor Nrf2) (Nrf2)
Cc1cc2oc(-c3ccc(N(C)C)cc3)c(O)c(=O)c2cc1C [CMS-117, 2-(4-(dimethylamino)phenyl)-3-hydroxy-6,7-dimethyl-4H-chromen-4-one] | yes | no | No
COc1cc(-c2ccc(O)c(O)c2)nc2ccccc12 [CMS-007, 4-methoxy-2-(3,4-dihydroxyphenyl) quinoline] | yes | no | No
Oc1ccc(-c2cc(OC3CCCC3)c3ccccc3n2)cc1O [CMS-121, 4-cyclopentyloxy-2-(3,4-dihydroxyphenyl) quinoline] | yes | yes | No
Cc1cc2oc(-c3ccc(N4CCCC4)cc3)c(O)c(=O)c2cc1C [CMS-122, 3-hydroxy-6,7-dimethyl-2-(4-(pyrrolidin-1-yl)phenyl)-4H-chromen-4-one] | yes | yes | No
O=c1c(O)c(-c2ccc(O)c(O)c2)oc2c1ccc1ccccc12 [CMS-040, 2-(3,4-dihydroxyphenyl)-3-hydroxy-4H-benzo[h]chromen-4-one] | no | yes | –
Cc1cc(O)c(C(=O)/C=C/c2ccc(O)c(O)c2)cc1C [CMS-011, (E)-3-(3,4-dihydroxyphenyl)-1-(2-hydroxy-4,5-dimethylphenyl)prop-2-en-1-one] | yes | yes | Yes
COc1cc(-c2oc3cc(C)c(C)cc3c(=O)c2O)ccc1OCc1ccccc1 [CMS-059, 2-(4-(benzyloxy)-3-methoxyphenyl)-3-hydroxy-6,7-dimethyl-4H-chromen-4-one] | no | no | –
COc1ccc(/C=C/C(=O)c2cc(C)c(C)cc2O)cc1OCc1ccccc1 [CMS-086, (E)-3-(3-(benzyloxy)-4-methoxyphenyl)-1-(2-hydroxy-4,5-dimethylphenyl)prop-2-en-1-one] | yes | yes | Yes
O=c1c(O)c(-c2ccc(N3CCCC3)c(O)c2)oc2c1ccc1ccccc12 [CMS-140, 3-hydroxy-2-(3-hydroxy-4-(pyrrolidin-1-yl)phenyl)-4H-benzo[h]chromen-4-one] | Yes | Yes | No
O=c1c(O)c(-c2ccc(O)c(O)c2)oc2cc(O)ccc12 [Fisetin, 3,7,3′,4′-Tetrahydroxyflavone, reference compound] | yes | yes | Yes
CCOc1cc(-c2ccc(O)c(O)c2)nc2ccccc12 [CMS-023, 4-ethoxy-2-(3,4-dihydroxyphenyl) quinoline] | yes | yes | No
CN(C)c1ccc(-c2oc3c(ccc4ccccc43)c(=O)c2O)cc1 [CMS-118, 2-(4-(dimethylamino)phenyl)-3-hydroxy-4H-benzo[h]chromen-4-one] | yes | no | No
O=C(/C=C/c1ccc(O)c(O)c1)c1ccc2ccccc2c1O [CMS-034, (E)-3-(3,4-dihydroxyphenyl)-1-(1-hydroxynaphthalen-2-yl)prop-2-en-1-one] | yes | yes | Yes
COc1cc(-c2oc3cc(C)c(C)cc3c(=O)c2O)ccc1O [CMS-069, 3-hydroxy-2-(4-hydroxy-3-methoxyphenyl)-6,7-dimethyl-4H-chromen-4-one] | no | no | –
CC(C)Oc1cc(-c2ccc(O)c(O)c2)nc2ccccc12 [CMS-024, 4-isopropoxy-2-(3,4-dihydroxyphenyl) quinoline] | yes | yes | No
O=c1c(O)c(-c2ccc(O)c(O)c2)oc2ccccc12 [CMS-04P, reference compound] | yes | yes | Yes
